Assay results as given in patent publication US9764037B2, “Conjugate compounds” (Victoria Link Limited, priority 2012, dated 2017).

Columns and labels:
[1] = HPLC-ESI-MSMS quantification of α-GalCer in formulated test samples; type: physicochemical; details: level of α-GalCer in freshly reconstituted formulated samples
Procedure: Compounds of the invention are formulated analogously to reported methods for α-GalCer. Briefly, solubilisation of α-GalCer is based on excipient proportions described by Giaccone et al. (Giaccone, Punt et al. 2002). Thus, 100 μL of a 10 mg/mL solution of α-GalCer or a compound of the invention in 9:1 THF/MeOH is added to 1.78 mL of an aqueous solution of Tween 20 (15.9 mg), sucrose (177 mg) and L-histidine (23.8 mg). This homogeneous mixture is freeze dried and the resulting foam is stored under Ar at −18° C. This material is reconstituted with 1.0 mL of PBS or water prior to serial dilutions in PBS to achieve final injectable solutions of α-GalCer or compounds of the invention.
Quantification of the amount of α-GalCer in various test samples of compounds of the invention is made by HPLC-ESI-MSMS analysis using a Waters 2795 HPLC and a Waters Q-TOF Premier™ Tandem Mass Spectrometer. The chromatography used a Phenomenex Kinetex C18 […] 3.0×50 mm column eluting with isocratic methanol containing 10 mM ammonium formate+0.5% formic acid at a flow rate of 0.2 mL/min. α-GalCer is monitored by selective […] monitoring of 898.7 to 696.7 Da. The estimate of amount of α-GalCer is made by comparison of ion count integrals to a standard curve run on the same day or by comparison to test samples spiked with a known amount of α-GalCer. The level of α-GalCer is determined on freshly reconstituted formulated samples unless otherwise stated

splenic dendritic cells = experiment: Impact of prior vaccination on response to free α-GalCer two weeks later, CD86 on splenic dendritic cells (FIGS. 6, 7); type: in vivo, mice; details: 200 ng α-GalCer intravenously two weeks after vaccination, FIGS. 6 and 7
Procedure: Flow cytometry is used to assess CD86 upregulation on splenic dendritic cells after intravenous injection of 200 ng α-GalCer, which is used as a readout of NKT cell activity. Mean fluorescence index (MFI)±SEM are presented. […] Each dot represents a different animal; mean per treatment group (n=3)±SEM are presented. ***p<0.001, **p<0.01, * p<0.05.

[2] = Ebensen, Link et al. 2007; cited from earlier work
T-cell = details: Parekh, Wilson et al. 2005; cited from earlier work
[3] = Giaccone, Punt et al. 2002; cited from earlier work
CD11c+ dendritic cells = experiment: CD86 expression on splenic dendritic cells after intravenous injection (FIG. 1); type: in vivo, C57BL/6 mice; details: 0.571 nmol intravenously, spleens 20 h later
Procedure: Groups of C57BL/6 mice (n=3) are injected intravenously with 0.571 nmol of the indicated compounds and then the spleens removed 20 h later for the analysis of CD86 expression on CD11c^+ dendritic cells by antibody labelling and flow cytometry. Mean fluorescence index (MFI)±SEM are presented.
Antibody staining and flow cytometry is used to examine the expression of maturation markers on dendritic cells in the spleen following injection of compounds of the invention. Splenocyte preparations are prepared by gentle teasing of splenic tissue through gauze in Iscove's Modified Dulbecco's Medium with 2 mM glutamine, 1% penicillin-streptomycin, 5×10^-5 M 2-mercapto-ethanol and 5% fetal bovine serum (all Invitrogen, Auckland, New Zealand), followed by lysis of red blood cells with RBC lysis buffer (Puregene, Gentra Systems, Minneapolis, Minn., USA). Antibody staining is performed in PBS 2% fetal bovine serum and 0.01% sodium azide. The anti-FcgRII monoclonal antibody 2.4G2 is used at […] to inhibit non-specific staining. Monoclonal antibodies (all BD Biosciences Pharmingen, San Jose, Calif., USA) are used to examine expression of the maturation markers CD40, CD80 and CD86 on CD11c+ dendritic cells.

[4] = test system: leukocyte infiltration into the lungs; experiment: Allergic airway inflammation in OVA-sensitized animals (FIG. 13); type: in vivo, mice; details: three days after challenge
Procedure: Control animals receive intranasal PBS instead of challenge, and positive control groups receive challenge but no treatment (“OVA”). The prodrug vaccines and admixed α-GalCer and peptide are administered seven days before challenge […], while the in vitro activated OVA257-specific CTL are administered one day before challenge (day 23). The total numbers of cells in BAL fluid (left), and numbers of eosinophils (right), are evaluated three days after challenge by flow cytometry.

[5] = test system: SIINFEKL-specific T cells; experiment: Analysis of peptide-specific T cell proliferation in vivo (FIGS. 2, 5, 8, 9); design: species or system mice
Procedure: (SEQ ID NO:262) peptide in each case. To increase sensitivity of the assay, all mice are initially donated a cohort of 10,000 […] (SEQ ID NO:262)-specific T cells from a transgenic mouse encoding a T cell receptor for this antigen (OT-1 mice) by intravenous injection of the cells one day before the vaccines are administered. […] It is therefore possible to enumerate […] (SEQ ID NO:262)-specific T cells in blood by flow cytometry using antibodies for CD45.1 together with antibodies for the transgenic T cell receptor (Vα2). […] Control animals are injected with the diluent phosphate-buffered saline (PBS). […] Each dot represents a different animal; mean per treatment group±SEM are presented.
Accumulation of antigen-specific T cells in the blood in response to vaccination is measured 7 days later, as described for FIG. 2.
Pooled lymph node cell suspensions are prepared from animals of a cross between OT-I mice, which express a transgenic T cell receptor (TCR) specific for the ovalbumin epitope […] in the context of H-2K^b molecules, and B6.SJL-Ptprc^a Pepc^b/BoyJ mice, which are congenic with C57BL/6 mice for the CD45.1^+ marker. The samples are enriched for CD8^+ cells using antibody coated magnetic beads (Miltenyi), and then transferred into recipient mice (1×10^4 per mouse). Groups of recipient animals (n=5) are immunized with compounds of the invention one day later. Doses are chosen to provide equivalent molar values of […] peptide. Control animals receive phosphate-buffered saline. After seven days, blood samples are collected from the lateral tail vein and stained directly ex vivo with antibodies for TCR Vα2, CD45.1 and CD8 to detect the […]-specific CD8^+ T cells by flow cytometry.

| Compound | α-GalCer/injection [1] | DC activation (CD86 upregulation) on administration of free α-GalCer after earlier vaccination (splenic dendritic cells) | solubility [2] | T-cell anergy (T-cell) | efficacy in human clinical trials [3] | activation of DCs (expression of activation marker CD86 on splenic DCs) (CD11c+ dendritic cells) | leukocyte infiltration into the lungs (total number of cells in BAL fluid) ([4]; vaccination of sensitized mice one week before challenge) | infiltration of eosinophils (BAL fluid) ([4]; vaccination seven days before challenge) | T cell expansion on repeated administration ([5]; FIG. 8) | T cell response on boosting after priming with SIINFEKL with α-GalCer (unconjugated) ([5]; boost day 14 or 35, read day 21 or 42, blood, FIG. 9) | dependence of the T cell response on langerin+ CD8α+ DCs ([5]; depletion by diphtheria toxin, FIG. 2) | population of SIINFEKL-specific T cells (Vα2+ CD45.1+) in blood ([5]; intravenous vaccination, compared with admixed α-GalCer and peptide, lang-EGFPDTR mice, FIG. 2) |
| --- | --- | --- | --- | --- | --- | --- | --- | --- | --- | --- | --- | --- |
| CCCCCCCCCCCCCCCCCCCCCCCCCC(=O)OC(CCCCCCCCCCCCCC)C(O)C(COC1OC(CO)C(O)C(O)C1O)NC(=O)OCc1ccc(NC(=O)C(CCCNC(N)=O)NC(=O)C(NC(=O)OCc2ccccc2)C(C)C)cc1 [CN165, (2S,3S,4R)-1-O-α-D-Galactopyranosyl-4-O-hexacosanoyl-2-(N-Cbz-Val-Cit-4-aminobenzyloxycarbonylamino) octadecane-1,3,4-triol] | 0.028 ng | some DC activation |  |  |  |  |  |  |  |  |  |  |
| CCCCCCCCCCCCCCCCCCCCCCCCCC(=O)OC(CCCCCCCCCCCCCC)C(O)C(COC1OC(CO)C(O)C(O)C1O)NC(=O)OCc1ccc(NC(=O)C(CCCCN)NC(=O)C(Cc2ccccc2)NC(=O)OCc2ccccc2)cc1 [CN166, (2S,3S,4R)-1-O-α-D-Galactopyranosyl-4-O-hexacosanoyl-2-(N-Cbz-Phe-Lys-4-aminobenzyloxycarbonylamino) octadecane-1,3,4-triol] | 0.136 ng | some DC activation |  |  |  |  |  |  |  |  |  |  |
| CCCCCCCCCCCCCCCCCCCCCCCCCC(=O)N[C@@H](CO[C@H]1O[C@H](CO)[C@H](O)[C@H](O)[C@H]1O)[C@H](O)[C@H](O)CCCCCCCCCCCCCC [α-GalCer, α-Galactosylceramide] |  | no measurable activation of DCs | poor solubility | promotion of T-cell anergy | lack of efficacy |  |  |  |  |  |  |  |
| (2S,3S,4R)-1-O-α-D-Galactopyranosyl-4-hexacosanoyl-2-((4-(2-(FFRKSIINFEKL)-2-oxoethoxy)imino)pentanoyloxy)methoxycarbonylamino) octadecane-1,3,4-triol [CN152] | 0.05 ng | some DC activation |  |  |  | potently activates DCs | significantly suppress leukocyte infiltration into the lungs | superior to both CN178 and admixed groups | induces further T cell expansion | induces measurable T cell responses | dependent on langerin^+ CD8α^+ DCs | larger population of peptide-specific T cells |
